US20200079860A1, “METHODS AND COMPOSITIONS FOR TUMOR THERAPY” (MEMORIAL SLOAN KETTERING CANCER CENTER, priority 2015, published 2020)

Test system: B16F10 cells
Assay: mouse bilateral tumor model (B16 murine melanoma); one tumor injected, contralateral non-injected
Format: in vivo, C57BL/6 mice
Experimental: By injecting only one of two tumors throughout the course of the experiment it is possible to separate the effect of the injected tumor from the “abscopal” effect on the distant non-injected tumor. Once treatment begins, tumors are measured twice weekly for at least 90 days.
Also, unless indicated otherwise, controls were treated with isotype control antibodies and vehicle only. Furthermore, unless indicated otherwise, all experiments were performed using the mouse bilateral tumor model described below and summarized in FIG. 2.
The animals used had large tumors in two opposite flanks. One tumor was injected while the second remained non-injected (FIG. 2), allowing separate analysis of the effect at the injected tumor from the so-called ‘abscopal’ effect at the non-injected tumor, in order to understand how this treatment could benefit patients with metastatic cancer. […] C57BL/6 mice were initially implanted with 5×10^5 syngeneic B16F10 cells intra-dermally in bilateral flanks. 8 days post tumor cell implantation, when bilateral tumors measured ˜0.5 cm, intratumoral (IT) treatment with various test agents was initiated together with intraperitoneal (IP) anti-PD-1 mAb. […]
8 days post tumor cell implantation, when bilateral tumors measured ˜0.5 cm, intratumoral (IT) treatment with agents selected to activate APCs was initiated together with intraperitoneal (IP) anti-PD-1 mAb. […]

Compound | survival on concurrent addition of systemic chemotherapy (added IP to intratumoral MPL, anti-IL10R, and anti-CD40) | substitution for MPL in the treatment (FIG. 35B)
O=C1[O][Pt]2([NH][C@@H]3CCCC[C@H]3[NH]2)[O]C1=O [oxaliplatin] | increased survival | 
PolyIC |  | can be substituted for MPL, albeit possibly with slightly reduced activity
